This experiment relates to endocervical adenocarcinoma KB-3.1. The experiment is described as follows: 5-day MTT cytotoxicity assay. The format is cell-based, human. The conditions noted are these: KB-3.1, 5-day MTT assay. The method, then: Cytotoxicity of compounds 1‒5 was initially determined against two cancer cell lines (mouse fibroblasts L-929 and human endocervical adenocarcinoma KB-3.1) by using a 5-day MTT assay according to an established procedure.
In 96-well flat-bottom microtiter plates, cell lines with serial dilution of the test compounds (final range: 37 to 0.6 × 10^−3 µg/mL) were incubated for five days. After five days, the cells were dyed using 3-(4,5-dimethyl-2-thiazolyl)-2,5-diphenyl-2H-tetrazolium bromide (MTT), which is only converted to its purple formazan derivative by living cells. The half-maximum inhibitory concentration (IC50 in µM) was calculated via the colorimetric method in a microplate reader using absorption at 595 nm. In addition, when an inhibition with an IC50 < 50 µM was observed, other cell lines were subjected to the test compounds to evaluate their further cytotoxicity: PC-3 (human prostate adenocarcinoma), SK-OV-3 (human ovary adenocarcinoma), MCF-7 (human breast adenocarcinoma), A-431 (human squamous carcinoma), and A549 (human lung carcinoma). A detailed procedure, including the colorimetric method to determine the cell viability, can be found in the SI.
Protocol: Cytotoxicity Assay
The assay was co nducted in 9 6-well flat -botto m microtiter plates using the parameters summarised in T able S2 and as described in [S2]. Cell l ines L-929 and KB-3.1 were incubated at 37 °C under 10 % CO2 in Gibco™ DMEM medium (T her mo Fisher Scientific, Waltham, M A, USA) supplemented with 10 % FBS. A microtiter plate was filled wit h 120 μ L o f this suspensio n (50,000/mL) in each well. Seperatel y, a nother microti ter plate wa s filled wit h 100 μL of gro wth medium in each well. Then, 50 μ L of the test compound solutions (1 mg/mL) were given to wells of the first column in two replicates (one compound per row). Cells without additives and MeOH were used as nega tive controls. Starting from the first column, 50 μ L of the solutions were gradually transferred to the next column, the contents thoroughly mixed, and 50 μL transferred to the following column. This created a serial dilution of the test compounds ranging from 333 μ g/mL to 1.9×10-3 μg/ mL. T he re mai ni ng 50 μ L after column twelve were discarded. From this microtiter plate, 60 μ L of the solutions fro m 111 μ g/mL to 1.9×10-3 μg/mL we r e give n to t he firs t p late co ntai ni ng 1 2 0 μ L of the cell suspensions (i.e. the highest co ncentration 333 μ g/ mL wa s no t used). T his resul ted in fi nal compo und concentratio ns rangi ng fro m 37 μ g/mL to 0.6×10-3 μg/ mL. After 5 days o f incubatio n under the aforementioned incubatio n conditions, the half maximu m inhibitory co ncentrations (IC50) were deter mined using a colorimetric tetrazolium d ye MT T assa y [S3]. For this, 20 μ L of a 5 mg/mL solution of 3-(4,5-dimethyl-2 -thiazolyl) -2,5-diphenyl-2H-tetrazolium br omide (MTT) were added to each well and incubated for two hours at 37 °C. T hen, the microtiter plate was ce ntrifuged (3,000 rpm, 5 min) and the supernatant removed by holding the plate upside-down and gentle shaking. Afterwards, the wells were washed using 100 μ L of phosphate buffered saline (PBS). T he plate was a gain ce ntrifuged a nd the supernata nt re mo ved as described before.
T hen, 1 0 0 μ L of an isopropanol:HCl solution (1L isopropanol+4 mL HCl 37 % w/v) were added to the wells. After incubating for 10 min at ambient temperature, the absorption of the wells at 595 nm was measured with an Infinite® 200 Pro microplate reader (TECAN, Männedorf, Schweiz). The absorption values of the cells without additives were averaged and set to 100 % cell viability. Then, the means of absorption of the two compound replicates were set in relation to the blank media. T hese percentage values were plotted against the concentratio n range (37 μ g/mL to 0.6×10−3 μg/ mL). T he IC50 value was r ead fro m the plot (in μ g/ mL) a nd the uni ts conversed […]
to μM. […]
For orientation: Formazan colour is commonly taken as a measure of viable cells.

Read-outs that look alike come from different tables or passages of the source.

Among the data in article PMC8224775, “Five Tetramic Acid Derivatives Isolated from the Iranian Fungus Colpoma quercinum CCTU A372” (Biomolecules, 2021) are IC50 values, retold here.

The term IC50 denotes the midpoint of a concentration-inhibition curve.

For `CC1=CC2CC(C)CCC2C2(C)C(=O)OC(C(=O)O)C(C)C12` (centres unmarked) [compound 3, Colposetin C], the IC50 entry was “not active”.

Consider `CCC(C(=O)O)C1C(C)=CC2CC(C)CCC2C1(C)C(O)=C1C(=O)C(C)N(C)C1=O` (centres unmarked) [compound 2, Colposetin B], for which the half-maximal inhibitory concentration (IC50) (Homo sapiens, KB 3-1, 120 h, read-out: IC50) is 5.7 µM.

Consider `CC(C=CCC(C)CCC=C(C)C(=O)C1=C(O)C(C)N(C)C1=O)=CC(C)C(O)C(=O)O` (centres unmarked) [compound 4, Colpomenoic acid A], for which the IC50 entry is “not active”.

Turning to `CC(C=CCC(C)C=CC=C(C)C(=O)C1=C(O)C(C)N(C)C1=O)=CC(C)C(O)C(=O)O` (centres unmarked) [compound 5, Colpomenoic acid B], the IC50 entry is “not active”.

In the case of `CC(=O)OC(C(=O)O)C(C)C1C(C)=CC2CC(C)CCC2C1(C)C(O)=C1C(=O)C(C)N(C)C1=O` (centres unmarked) [compound 1, Colposetin A], the IC50 entry is recorded as “not active”.
